Experiment [1] has as its target T1, Sphingomyelin phosphodiesterase (Homo sapiens) (UniProt P17405).
T1 sequence (whole entry): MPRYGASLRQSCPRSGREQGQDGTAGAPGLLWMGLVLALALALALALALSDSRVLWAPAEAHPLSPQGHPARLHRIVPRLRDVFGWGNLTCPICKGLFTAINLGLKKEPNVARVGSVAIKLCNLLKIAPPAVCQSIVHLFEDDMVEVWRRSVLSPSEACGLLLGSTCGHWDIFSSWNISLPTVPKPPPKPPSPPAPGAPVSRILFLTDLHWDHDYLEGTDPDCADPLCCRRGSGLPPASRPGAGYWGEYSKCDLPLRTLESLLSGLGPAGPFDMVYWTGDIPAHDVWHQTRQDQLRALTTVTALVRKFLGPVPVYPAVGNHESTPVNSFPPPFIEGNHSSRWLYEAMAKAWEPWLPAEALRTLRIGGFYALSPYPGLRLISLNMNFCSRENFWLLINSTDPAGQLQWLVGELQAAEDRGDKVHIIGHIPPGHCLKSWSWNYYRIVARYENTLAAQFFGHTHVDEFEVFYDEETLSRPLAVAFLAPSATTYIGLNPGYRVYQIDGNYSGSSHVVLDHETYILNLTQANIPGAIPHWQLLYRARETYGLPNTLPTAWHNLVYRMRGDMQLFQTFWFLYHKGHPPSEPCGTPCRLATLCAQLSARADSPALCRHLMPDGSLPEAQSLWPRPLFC
Briefly: Inhibition of aSMase expressed in human A549 cells using 6-hexadecanoylamino-4-methylumbelliferylphosphorylcholine as substrate at 10 uM after 2 hrs by spectrophotometry. Type of experiment: cell-based.

For experiment [2], the target named is T2, Lysosomal acid glucosylceramidase (Homo sapiens) (UniProt P04062).
T2 sequence (whole entry): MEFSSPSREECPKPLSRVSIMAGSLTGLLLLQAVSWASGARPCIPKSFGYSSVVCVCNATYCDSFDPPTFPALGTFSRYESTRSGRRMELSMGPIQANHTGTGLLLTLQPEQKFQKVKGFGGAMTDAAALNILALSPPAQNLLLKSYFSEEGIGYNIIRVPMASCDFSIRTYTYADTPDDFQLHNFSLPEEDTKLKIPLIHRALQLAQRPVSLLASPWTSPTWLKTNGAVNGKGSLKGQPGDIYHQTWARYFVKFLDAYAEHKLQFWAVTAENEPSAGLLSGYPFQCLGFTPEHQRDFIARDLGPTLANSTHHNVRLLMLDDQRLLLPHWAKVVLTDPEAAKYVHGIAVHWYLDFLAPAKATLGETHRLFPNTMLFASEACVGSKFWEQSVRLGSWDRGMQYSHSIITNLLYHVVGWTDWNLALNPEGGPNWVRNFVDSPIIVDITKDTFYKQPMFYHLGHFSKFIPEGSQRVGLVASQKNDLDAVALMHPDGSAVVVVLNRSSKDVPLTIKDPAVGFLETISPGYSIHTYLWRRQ
Briefly: Inhibition of glucocerebrosidase in human A549 cells using 4-methylumbelliferyl beta-D-glucoside as substrate at 10 uM after 45 mins by spectrophotometry. Type of experiment: cell-based.

The target in experiment [3] is T3, Sphingolipid delta(4)-desaturase DES1 (Homo sapiens, UniProt O15121).
T3 sequence (O15121 whole entry): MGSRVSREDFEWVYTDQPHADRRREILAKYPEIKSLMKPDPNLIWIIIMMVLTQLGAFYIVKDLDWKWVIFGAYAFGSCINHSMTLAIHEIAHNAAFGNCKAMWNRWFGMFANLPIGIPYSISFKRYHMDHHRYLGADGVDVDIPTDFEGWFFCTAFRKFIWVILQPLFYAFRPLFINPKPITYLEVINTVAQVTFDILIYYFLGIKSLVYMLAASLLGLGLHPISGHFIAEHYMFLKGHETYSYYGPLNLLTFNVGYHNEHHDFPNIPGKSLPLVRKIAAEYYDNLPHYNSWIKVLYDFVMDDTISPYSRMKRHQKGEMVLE
Briefly: Inhibition of Des1 in human HCT116 cells assessed as formation of CerC6NBD from dhCerC6NBD after 4 hrs by HPLC-FD analysis.

For experiment [4], the target named is T3, Sphingolipid delta(4)-desaturase DES1. Briefly: Inhibition of Des1 in human A549 cells assessed as formation of CerC6NBD from dhCerC6NBD after 4 hrs by HPLC-FD analysis.
Experiment [5] has as its target T1, Sphingomyelin phosphodiesterase (Homo sapiens). Briefly: Inhibition of aSMase expressed in human A549 cells using 6-hexadecanoylamino-4-methylumbelliferylphosphorylcholine as substrate at 40 uM after 2 hrs by spectrophotometry. Type of experiment: cell-based.
Experiment [6] deals with T2, Lysosomal acid glucosylceramidase (Homo sapiens). Briefly: Inhibition of glucocerebrosidase in human A549 cells using 4-methylumbelliferyl beta-D-glucoside as substrate at 40 uM after 45 mins by spectrophotometry. The experiment is classed as cell-based.
The target in experiment [7] is T1, Sphingomyelin phosphodiesterase (Homo sapiens). Briefly: Inhibition of aSMase expressed in human A549 cells using 6-hexadecanoylamino-4-methylumbelliferylphosphorylcholine as substrate at 20 uM after 2 hrs by spectrophotometry. Type of experiment: cell-based.
Experiment [8] deals with T2, Lysosomal acid glucosylceramidase (Homo sapiens). Briefly: Inhibition of glucocerebrosidase in human A549 cells using 4-methylumbelliferyl beta-D-glucoside as substrate at 20 uM after 45 mins by spectrophotometry. The experiment is classed as cell-based.

Activity calls are given as the source filed them. The calls are words filed in the database; no cut-off is given here.

In ChEMBL document CHEMBL2021903, “3-Deoxy-3,4-dehydro analogs of XM462. Preparation and activity on sphingolipid metabolism and cell fate” (Bioorg Med Chem, 2012) one finds inhibition and IC50 data, which are given here for three compounds.

As a reminder, the IC50 is the concentration that inhibits the measured activity by half.

Consider `CCCCCCCCCCCCCS/C=C/[C@H](CO)NC(=O)CCCCCCC`, for which the inhibition result in experiment [1] and in experiment [2] was “inactive” each time. Further, the results for the half-maximal inhibitory concentration (IC50) in experiment [3] and in experiment [4] were 18.8 µM and 18.1 µM, respectively.

For the compound `CCCCCCCCCCCCCS/C=C/[C@H](CO)NC(=O)c1ccc(C(C)(C)C)cc1`, the inhibition entry in experiment [5] and in experiment [6] was “inactive” throughout.

Regarding `CCCCCCCCCCCCCS/C=C/[C@H](CO)NC(=O)C(C)(C)C`, the inhibition result in experiment [7] and in experiment [8] was “inactive” each time.
